Data: patent US5017689A, “Dynorphin analogs specific for kappa opioid receptors” (Arizona Technology Development Corporation, priority 1989, dated 1991)
Like-named read-outs stand apart in the source and are kept apart here. Bridge positions count the residues as written; N and C are the ends. Peptide text beside a SMILES is read from it.

What was measured:
[1] = administered i.c.v.; cited from earlier work
kappa opioid receptor = conditions: cited from earlier work
[2] = administered i.c.v.; cited from earlier work; remark: listed apart in the source
κ opioid receptors = target: T1, κ opioid receptors (Cavia porcellus, UniProt P41144); experiment: Radioligand binding, inhibition of [3H]U-69593 binding to guinea pig brain membrane
T1 construct: from tissue; host or cells: whole guinea pig brain membranes
T1 sequence (P41144 whole entry): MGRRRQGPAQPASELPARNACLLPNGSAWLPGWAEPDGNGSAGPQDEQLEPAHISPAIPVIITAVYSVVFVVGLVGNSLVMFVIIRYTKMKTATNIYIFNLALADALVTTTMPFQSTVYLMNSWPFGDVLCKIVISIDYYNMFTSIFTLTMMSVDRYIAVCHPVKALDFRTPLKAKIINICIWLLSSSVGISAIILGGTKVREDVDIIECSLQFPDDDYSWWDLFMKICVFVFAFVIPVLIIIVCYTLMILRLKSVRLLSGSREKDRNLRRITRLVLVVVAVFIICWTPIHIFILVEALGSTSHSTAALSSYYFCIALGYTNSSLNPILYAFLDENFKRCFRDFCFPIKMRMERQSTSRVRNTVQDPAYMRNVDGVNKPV
Method: (§2) Samples were incubated for 1.0 h at 25° C. before filtration through glass fiber filter strips (GF/B, Whatman) pretreated with 0.1% polyethylenimine. Nonspecific binding (=20% of total binding) was defined as binding measured in the presence of 1.0 μM Dyn A1-13.

δ opioid receptors = target: T2, δ opioid receptors (Rattus norvegicus, UniProt P33533); experiment: Radioligand binding, [3H]DPDPE, brain membranes; conditions: rat brain homogenate, 1.0 nM radioligand
T2 construct: membranes prepared from whole rat brain (less cerebellum); from tissue; host or cells: whole rat brain (less cerebellum) membranes
T2 sequence (P33533 whole entry): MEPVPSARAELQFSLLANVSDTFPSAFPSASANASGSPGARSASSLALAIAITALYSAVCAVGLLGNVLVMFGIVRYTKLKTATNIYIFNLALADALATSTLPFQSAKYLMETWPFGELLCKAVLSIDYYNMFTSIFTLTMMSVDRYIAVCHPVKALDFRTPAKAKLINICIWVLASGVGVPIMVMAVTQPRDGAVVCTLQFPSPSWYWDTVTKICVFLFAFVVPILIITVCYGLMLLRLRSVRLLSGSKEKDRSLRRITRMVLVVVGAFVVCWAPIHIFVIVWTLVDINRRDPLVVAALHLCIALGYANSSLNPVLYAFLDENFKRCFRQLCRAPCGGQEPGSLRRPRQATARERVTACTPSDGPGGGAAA
Method: as §2

μ opioid receptors = μ opioid receptors (Rattus norvegicus, UniProt P33535); experiment: biochemical
μ opioid receptors, sequence (P33535 whole entry): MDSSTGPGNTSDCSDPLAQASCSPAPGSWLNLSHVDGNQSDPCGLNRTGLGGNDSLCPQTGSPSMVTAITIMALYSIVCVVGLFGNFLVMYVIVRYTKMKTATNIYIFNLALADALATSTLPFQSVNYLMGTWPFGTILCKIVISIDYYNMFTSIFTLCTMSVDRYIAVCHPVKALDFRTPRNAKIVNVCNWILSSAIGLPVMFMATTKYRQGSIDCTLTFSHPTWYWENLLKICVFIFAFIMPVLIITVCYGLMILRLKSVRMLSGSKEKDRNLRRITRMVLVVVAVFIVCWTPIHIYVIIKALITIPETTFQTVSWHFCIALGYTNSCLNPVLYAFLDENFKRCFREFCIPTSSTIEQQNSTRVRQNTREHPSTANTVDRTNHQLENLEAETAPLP

[3] = test system: guinea pig ileum (GPI) longitudinal muscle/myenteric plexus preparation; experiment: Guinea pig ileum (GPI) longitudinal muscle/myenteric plexus bioassay; type: cell-based
Method: The known guinea pig ileum (GPI) longitudinal muscle/myenteric plexus preparation was used for in vitro bioassays (Kosterlitz, H.W., Lydon, R.J., and Watt, A.J., (1970), Br. J. Pharmacol., 39, 398-413). The tissues were suspended under a final tension of 1 g in organ baths, bathed with Krebs buffer (NaCl 118 mM, KCl 4.7 mM, CaCl2 2.5 mM, KH2 PO4 1.19 mM, MgSO4 1.18 mM, NaHCO3 25 mM, and glucose 11.48 mM), maintained at 37° C. and aerated with 95% O2 /5% CO2. Electrical stimuli were 0.4 msec pulses of supramaximal voltage, at a rate 6/min. Isometric contractions were measured via strain gauge force transducers on chart recorders. The mouse vas deferens (MVD) preparation was also performed as described by Hughes et al. (Hughes, J., Kosterlitz, H.W., and Leslie, F.M., (1975), Br. J. Pharmacol., 53, 371-381). The Krebs buffer was made as above, but without magnesium and the tissues were suspended under a final tension of 500 mg. Pulse duration was 2 msec. Dose-response testing in all preparations was carried out in a cumulative fashion. The compounds were tested for intrinsic agonist activity in the two in vitro bioassays. […] Ke values were calculated according to the formula: […]
(§1) where [Ant] is the concentration of the antagonist, and DR is the dose ratio (i.e., IC50 after antagonism divided by the IC50 before antagonist activity was measured).

[4] = test system: mouse vas deferens (MVD) preparation; experiment: Mouse vas deferens (MVD) bioassay; type: cell-based
Method: The known guinea pig ileum (GPI) longitudinal muscle/myenteric plexus preparation was used for in vitro bioassays (Kosterlitz, H.W., Lydon, R.J., and Watt, A.J., (1970), Br. J. Pharmacol., 39, 398-413). The tissues were suspended under a final tension of 1 g in organ baths, bathed with Krebs buffer (NaCl 118 mM, KCl 4.7 mM, CaCl2 2.5 mM, KH2 PO4 1.19 mM, MgSO4 1.18 mM, NaHCO3 25 mM, and glucose 11.48 mM), maintained at 37° C. and aerated with 95% O2 /5% CO2. Electrical stimuli were 0.4 msec pulses of supramaximal voltage, at a rate 6/min. Isometric contractions were measured via strain gauge force transducers on chart recorders. The mouse vas deferens (MVD) preparation was also performed as described by Hughes et al. (Hughes, J., Kosterlitz, H.W., and Leslie, F.M., (1975), Br. J. Pharmacol., 53, 371-381). The Krebs buffer was made as above, but without magnesium and the tissues were suspended under a final tension of 500 mg. Pulse duration was 2 msec. Dose-response testing in all preparations was carried out in a cumulative fashion. The compounds were tested for intrinsic agonist activity in the two in vitro bioassays. Thus, concentrations showing intrinsic activity for each analog were tested in the presence of naloxone (1000 nM) to define opioid activity. To further define the opioid selectivity of the agonist effect, the δ selective antagonist ICI 174,864 (Cotton, R., Giles, M.G., Miller, L., Shaw, J.S., and Timms, D. (1984), Eur. J. Pharmacol., 97, 331-332) was utilized in the MVD, and the μ selective antagonists CTAP (Pelton, J.T., Kazmierski, W., Gulya, K., Yamamura, H.I., and Hruby, V.J. (1986), J. Med. Chem., 29, 2370-2375) or CTP (Pelton, J.T., Gulya, K., Hruby, V.J., Duckles, S., and Yamamura, H.I. (1985) Proc. Natl. Acad. Sci. U.S.A., 82, 236-239) were employed in the GPI, all at 1000 nM. Ke values were calculated according to the formula: […]
as §1

[5] = selectivity, ratio of IC50 values

| Compound | IC50 (κ opioid receptors) [nM] | IC50 (δ opioid receptors) [nM] | IC50 (μ opioid receptors) [nM] | further results |
| --- | --- | --- | --- | --- |
| [D-pro^10 ]Dyn A1-11 -OH [DPDYN] |  |  |  | activity against thermal stimulus [1]: did not show any activity; reported binding affinity (kappa opioid receptor; against the kappa ligand [3H]Bremazocine): about 0.032 nM; κ vs. μ and κ vs δ selectivities (kappa opioid receptor): high; effect against chemical pain [2]: dose-related effect |
| CC(C)C[C@H](NC(=O)[C@H](Cc1ccccc1)NC(=O)CNC(=O)CNC(=O)[C@@H](N)Cc1ccc(Br)cc1)C(=O)N[C@@H](CCCNC(=N)N)C(=O)N[C@@H](CCCNC(=N)N)C(=O)N[C@H](C)C(=O)N[C@@H](CCCNC(=N)N)C(=O)N1CCC[C@H]1C(=O)N[C@@H](CCCCN)C(N)=O [Compound 7, [p-BrPhe^1, D-Ala^8]Dyn A1-11NH2] | 1.7 ± 0.14 | 1060 ± 40 | 47 ± 5.1 |  |
| C[C@H]1NC(=O)[C@H](CCCNC(=N)N)NC(=O)[C@H](CCCNC(=N)N)NC(=O)[C@@H](NC(=O)[C@H](Cc2ccccc2)NC(=O)CNC(=O)CNC(=O)[C@@H](N)Cc2ccc(O)cc2)CSSC[C@@H](C(N)=O)NC(=O)[C@@H]2CCCN2C(=O)[C@H](CCCNC(=N)N)NC1=O [Compound 2] | 0.28 ± 0.036 | 1.63 ± 0.53 | 0.27 ± 0.14 |  |
| CC[C@H](C)[C@@H]1NC(=O)[C@H](CCCN=C(N)N)NC(=O)[C@H](CCCN=C(N)N)NC(=O)[C@@H](NC(=O)[C@H](Cc2ccccc2)NC(=O)CNC(=O)CNC(=O)[C@@H](N)Cc2ccc(O)cc2)CSSC[C@@H](C(N)=O)NC(=O)[C@@H]2CCCN2C(=O)[C@H](CCCN=C(N)N)NC1=O [Compound 1] (H-YGGFCRRIRPC-NH2; disulfide 5-11) | 0.39 ± 0.06 | 18.6 ± 7.5 | 2.3 ± 0.72 |  |
| CC(C)C[C@@H]1NC(=O)[C@H](CCCCN)NC(=O)[C@@H]2CCCN2C(=O)[C@H](CCCN=C(N)N)NC(=O)[C@@H](NC(=O)[C@H](CCCN=C(N)N)NC(=O)[C@H](CCCN=C(N)N)NC(=O)[C@H](CC(C)C)NC(=O)[C@H](Cc2ccccc2)NC(=O)CNC(=O)CNC(=O)[C@@H](N)Cc2ccc(O)cc2)CSSC[C@@H](C(N)=O)NC1=O [Compound 3] |  | 3.97 ± 0.96 | 0.98 ± 0.12 |  |
| CC[C@H](C)[C@H](NC(=O)[C@H](CCCN=C(N)N)NC(=O)[C@H](CCCN=C(N)N)NC(=O)[C@H](CC(C)C)NC(=O)[C@H](Cc1ccccc1)NC(=O)CNC(=O)CNC(=O)[C@@H](N)Cc1ccc(O)cc1)C(=O)N[C@@H](CCCN=C(N)N)C(=O)N1CCC[C@H]1C(=O)N[C@@H](CCCCN)C(=O)N[C@@H](CC(C)C)C(=O)N[C@@H](CCCCN)C(N)=O [Dyn A1-13NH2, reference compound] | 0.109 ± 0.003 | 2.96 | 1.33 |  |
| CC(C)C[C@@H]1NC(=O)[C@H](CCCCN)NC(=O)[C@@H]2CCCN2C(=O)[C@H](CCCNC(=N)N)NC(=O)[C@H](NC(=O)[C@H](CCCNC(=N)N)NC(=O)[C@H](CCCNC(=N)N)NC(=O)[C@H](CC(C)C)NC(=O)[C@H](Cc2ccccc2)NC(=O)CNC(=O)CNC(=O)[C@@H](N)Cc2ccc(O)cc2)CSSC[C@@H](C(N)=O)NC1=O [Compound 4] |  | 104 ± 1.86 | 10.3 ± 3.9 |  |
| CC(C)C[C@H](NC(=O)[C@H](Cc1ccccc1)NC(=O)CNC(=O)CNC(=O)[C@@H](N)Cc1ccc(O)cc1)C(=O)N[C@@H](CCCNC(=N)N)C(=O)N[C@@H](CCCNC(=N)N)C(=O)N[C@@H]1CSSC[C@H](C(N)=O)NC(=O)[C@H](CC(C)C)NC(=O)[C@H](CCCCN)NC(=O)[C@@H]2CCCN2C(=O)[C@H](CCCNC(=N)N)NC1=O [Compound 5] |  |  |  | δ/κ (κ opioid receptors; [5]): 130; μ/κ (κ opioid receptors; [5]): 3; IC50 (κ opioid receptors; κ, guinea pig brain homogenate, 1.0 nM radioligand, read-out: IC50 (nM) [3H]-U-69,593): 0.11 ± 0.009 nM; IC50 [3]: 1.75 nM; Ke (nM) for: NLX ([3]; naloxone 1000 nM): 233 nM; IC50 [4]: 19.5 nM; Ke (nM) for: NLX ([4]; naloxone 1000 nM): 18.2 nM; Ke (nM) for: ICI ([4]; δ antagonist ICI 174,864 1000 nM): 1000 nM; Ke (nM) for: CTAP ([4]; μ antagonist CTAP 1000 nM): 1430 nM |
| CC[C@H](C)[C@H](NC(=O)[C@H](CCCNC(=N)N)NC(=O)[C@H](CCCNC(=N)N)NC(=O)[C@H](CC(C)C)NC(=O)[C@H](Cc1ccccc1)NC(=O)CNC(=O)CNC(=O)[C@@H](N)Cc1ccccc1)C(=O)N[C@@H](CCCNC(=N)N)C(=O)N1CCC[C@@H]1C(=O)N[C@@H](CCCCN)C(N)=O [Compound 6, [Phe^1, D-Pro^10]Dyn A1-11NH2] | 2.4 ± 0.56 | 390 ± 52 | 120 ± 22 |  |
